The test system of series [1] is rat cell lines. The conditions noted are these: cited from earlier work.
Series [2] has as its system human cell lines. Conditions: cited from earlier work.
Series [3] is described as follows: Neutron reflectometry (NR) of tethered POPC / POPC-d31 lipid bilayer membranes incubated with the substance and after rinse. It counts as physicochemical. The conditions noted are these: for Peak of avobenzone CVO from bilayer center / Surface volume density: co-refined POPC-d31 and POPC. The procedure:
The interaction of avobenzone and calix[8]-PO3H2 was tested with single-membrane POPC (1-palmitoyl-2-oleoyl-sn-glycero-3-phosphocholine) tethered lipid bilayer membranes (tBLMs). Solvent-immersed tBLMs allowed for a characterization of the membrane before and after addition of avobenzone and calix[8]-PO3H2 from solution, thus mimicking the encounter of those substances by the membrane in the body. This differentiates tBLMs from conventionally used stacked lipid bilayer model systems in air. The chemical structure of the glycerophospholipid POPC consists of a zwitterionic phosphatidylcholine headgroup linked to a glycerol, which is ester-bound to two fatty acid groups—palmitic acid (C16:0) and oleic acid (C18:1). This fatty acid composition mimics that of phospholipids mainly found in the eukaryotic cell membrane, including keratinocytes. In addition to phospholipids, native eukaryotic membranes also contain glycolipids, sterols and various proteins, which are not included in the current simplified model system.
Neutron Reflectometry (NR) experiments were conducted with hydrogenated and deuterated POPC bilayers. Both data sets were simultaneously analyzed to obtain one structural model. NR measurements were performed with the CGD-Magik reflectometer at the NIST Center for Neutron Research (NCNR). Reflectivity curves were recorded for momentum transfer values 0.01≤qz≤0.25 Å^−1. For each measurement, adequate counting statistics were obtained after 5-7 h. The NCNR fluids cell allows for in situ solvent exchange; therefore, subsequent measurements were performed on the same sample area. The entire flow cell was maintained at room temperature (RT). Solvent exchange was accomplished by rinsing ˜10 ml of water through the cell (volume ˜1.3 ml) using a syringe.
A set of NR experiments was conducted with a hydrogenated POPC bilayer and another identical set of experiments with a deuterated POPC-d31 bilayer. After measurement of the as-prepared bilayer in H2O and D2O, avobenzone was added to the sample cell at a concentration of 100 μM dissolved in H2O and D2O. NR measurements were conducted while the bilayer was in contact with either solution. The sample was measured again after rinsing with H2O and D2O, respectively. Data for both bilayers were co-refined sharing conserved model parameters across data sets, in particular those associated with the volume profile of avobenzone. […] An identical set of measurements were performed with a 100 μM complex of 1:1 avobenzone:calix[8]-PO3H2 instead of pure avobenzone.
1D-component volume occupancy (CVO) profiles along the lipid bilayer normal were obtained. Bilayer fit parameters were the hydrocarbon thickness for each bilayer subsection, the bilayer completeness, and the thickness of the sub-membrane space. One roughness parameter was applied to all distributions. The thin layer of native silicon oxide was modelled by a single distribution with individual roughness and thickness parameters. Hermite splines defined by control points that were on average 15 Å apart were used to model the CVO profiles of avobenzone and calix[8]-PO3H2. The number of control points was iteratively refined during model optimization for each CVO profile. Fit parameters associated with each control point were a volume occupancy, a deviation from equidistant separation, and (for the CVO profile of the complex) a nSLD (neutron scattering length density) value between those of avobenzone and calix[8]-PO3H2. Such a variable nSLD per control point allowed us to separate individual CVO profiles for avobenzone (average nSLD ρ=1.37×10^−6 Å^−2) and calix[8]-PO3H2 (ρ=2.73×10^−6 […]). The exchange of labile protons in isotopically different buffers affects the nSLD of molecular components and was taken into account during data analysis. Optimization of model parameters was performed using the ga_refl and Refl1D software packages developed at the NCNR. […]

The conditions of series [4]: once exposed to sun; cited from earlier work.
The mark [5] stands for this setting: avobenzone alone, 100 μM incubation.

The structures appear in SMILES notation.

On to `O=P(O)(O)c1cc2c(O)c(c1)Cc1cc(P(=O)(O)O)cc(c1O)Cc1cc(P(=O)(O)O)cc(c1O)Cc1cc(P(=O)(O)O)cc(c1O)Cc1cc(P(=O)(O)O)cc(c1O)Cc1cc(P(=O)(O)O)cc(c1O)Cc1cc(P(=O)(O)O)cc(c1O)Cc1cc(P(=O)(O)O)cc(c1O)C2` [calix[8]-PO3H2, p-phosphonated calix[8]arene], for which the “Toxicity towards rat cell lines” value in series [1] was “non-toxic”. The “Toxicity towards human cell lines” value in series [2] is “non-toxic”.

Turning to `COc1ccc(C(=O)CC(=O)c2ccc(C(C)(C)C)cc2)cc1` [avobenzone, 1-(4-methoxyphenyl)-3-(4-tertbutylphenyl)-propane-1,3-dione], in series [3] (setting [5]), the “Peak of avobenzone CVO from bilayer center” value is listed as 10±3 Å and the Surface volume density is 3.0±0.5 Å^3/Å^2. In addition, in series [3] (avobenzone alone, Rinse), the “1 avobenzone per n lipids in outer leaflet” value is listed as ~1 avobenzone per 2.1 lipids in outer leaflet, the “Peak of avobenzone CVO from bilayer center” value was 7±3 Å and the Surface volume density came to 3.8±0.4 Å^3/Å^2. Moreover, the “Penetration of the lipid bilayer (in words)” value in series [3] (interacts at hydrocarbon/headgroup interface of the substrate-distal leaflet) is “without penetrating the bilayer to the substrate-proximal leaflet”. Moreover, the Duration of photoprotection in series [4] was 30 min.
